# Measured values from US20040127547A1, “Prodigiosin composition for the treatment of rheumatic arthritis” (priority 2001, published 2004).
# What was measured:
# [1] = system: animal; settings: 10 to 30 mg/kg for 16 weeks; cited from earlier work
# [2] = system: T-cell; settings: cited from earlier work
# [3] = system: DBA/1 mouse with collagen-induced rheumatic arthritis; test: Laboratory test: hematoxylin and eosin staining of interphalangeal and knee joints; type: in vivo; settings: H&E staining
# Description: The ininter phalangeal joints and knee joints from DBA/1 mouse of the prodigiosin-treated group and the control group, not treated with prodigiosin, in Example 3 were subjected to a laboratory test. The ininter phalangeal joints and knee joints were removed on the last day of the administration and stained with hematoxylin and eosin.
# [4] = system: DBA/1 mouse with collagen-induced rheumatic arthritis; test: Crisis level (clinical index) of collagen-induced rheumatic arthritis; type: in vivo
# Description: 6 week-old male DBA/1 mouse supplied from Charles River Japan (Japan) was adapted until 8 to 12 week-old and then, used in the experiment. On the first day of the experiment, the mouse was administered subcutaneously with 100 μl of collagen/complete freund's adjuvant at its tail. The collagen/complete freund's adjuvant was prepared by mixing a solution of collagen (bovine type II) dissolved in 0.05 M acetic acid at a concentration of 2 mg/ml with complete freund's adjuvant at the same concentration. At 21st day of the experiment, 100 μg of collagen was intraperitoneally administered and at 28th day of the experiment, 40 μg of lipopolysaccharide was intraperitoneally administered to promote arthritis crisis. The crisis level of rheumatic arthritis was examined with the naked eye and expressed as a clinical index. That is, 0=none, 0.5=flushed and swollen toe, 1=mild crisis, 1.5=moderate crisis, 2 or more=severe crisis and joint stiffness. Four legs of the DBA/1 mouse were examined for their levels of arthritis crisis.
# In order to confirm the therapeutic effect of prodigiosin on rheumatic arthritis, three types of experiments were performed according to the following strategies: (1) 10 mg/kg of prodigiosin was intraperitoneally administered every other day from the 29th day of the experiment, when rheumatic arthritis lesion was developed, to 65th day, the last day of the experiment; (2) 10 mg/kg of prodigiosin was intraperitoneally administered every other day from the 29th day of the experiment, when rheumatic arthritis lesion was developed, to 36th day of the experiment; and (3) 10 mg/kg of prodigiosin was intraperitoneally administered every other day from the 36th day of the experiment, when rheumatic arthritis was in progress, to 65th day, the last day of the experiment.
# (§1) In this example, the DBA/1 mouse with collagen-induced rheumatic arthritis, prepared in Example 1, were administered intraperitoneally with 10 mg/kg of prodigiosin every other day from the 29th day of the experiment to 65th day of the experiment. The DBA/11 mouse treated with prodigiosin according to the above method and the DBA/1 mouse non-treated with prodigiosin were examined for their crisis level of rheumatic arthritis according to time.
# as §1, with “order to investigate the change after suspension of administration of prodigiosin and the influence of prodigiosin on early rheumatic arthritis,” for “this example,”, “36th” for “65th”, “DBA/1” for “DBA/11”, “time. […] Accordingly, it is noted that prodigiosin has effects preventing and treating rheumatic arthritis.” for “time.”
# In order to investigate the influence of prodigiosin on rheumatic arthritis which had developed and progressed, the DBA/1 mouse with collagen-induced rheumatic arthritis, prepared in Example 1, were administered intraperitoneally with 10 mg/kg of prodigiosin every other day from the 36th day to 65th day after starting the experiment. The DBA/1 mouse treated with prodigiosin according to the above method and the DBA/1 mouse non-treated with prodigiosin were examined for their crisis level of rheumatic arthritis according to time.
# [5] = system: B-cell; settings: cited from earlier work
# [6] = system: transplantation rejection; settings: in vivo; cited from earlier work
# [7] = system: NOD mouse; settings: cited from earlier work
# [8] = system: cytokines TNF-α, IL-1β, IL-6, IL-12, IL-2, IFN-γ, IL4, IL-10; test: Cytokine expression levels in spleen cells by RT-PCR; type: in vivo; settings: spleen cells of treated DBA/1 mouse, 10 mg/kg i.p. every other day
# Description: The spleen cells were removed from DBA/1 mouse of the prodigiosin-treated group and the control group, not treated with prodigiosin, in Example 3 and subjected to RNA separation. Then, the expression levels of cytokine were measured using RT-PCR (Reverse transcriptase polymerase chain reaction). The expression levels of inflammatory cytokines such as TNF-α, IL-1β, IL-6, IL-12; cytokines derived from Th1 cells such as IL-2, IFN-γ; cytokines derived from Th2 cells such as IL4, IL-10 were measured.
smiles,measurement,setting,value
CCCCCC1=C/C(=C/c2[nH]c(-c3ccc[nH]3)cc2OC)N=C1C [prodigiosin],toxicity in animal,[1],does not show toxicity
same,proliferation and activity of T-cell,[2],strongly inhibit
same,toxicity at a concentration where immunosuppression occurs,[2]; concentration where immunosuppression occurs,not showing toxicity
same,histology of interphalangeal joint and knee joint,"[3]; groups of Example 3 (10 mg/kg i.p., 29th to 36th day)",Normal tissues
same,joint destruction in the knee joint,[3]; groups of Example 3,not observed
same,lymphocyte infiltration into the interphalangeal joint,[3]; groups of Example 3,not observed
same,crisis level of rheumatic arthritis after suspension of administration,"[4]; 10 mg/kg i.p. every other day from 29th to 36th day, after suspension of administration",about 1
same,crisis level of rheumatic arthritis by the 38th day,"[4]; 10 mg/kg i.p. every other day from 29th to 36th day, by the 38th day",≤ 0.5
same,crisis level of rheumatic arthritis,"[4]; 10 mg/kg i.p. every other day from 29th to 65th day, clinical index 0 to 8 (four legs)",≤ 0.5
same,crisis level of rheumatic arthritis at 36 day,"[4]; 10 mg/kg i.p. every other day from 36th to 65th day, at 36 day (start of administration)",about 2
same,change of crisis level after 36 day,"[4]; 10 mg/kg i.p. every other day from 36th to 65th day, progressive arthritis",no more increase
same,antibody production and proliferation of B-cell,[5],does not inhibit
same,effect on transplantation rejection,[6],therapeutic effects
same,diabetes crisis of the NOD mouse,[7]; 10 mg/kg intraperitoneally every other day,completely suppressed
same,insulitis (lymphocyte infiltration into pancreatic islet),[7]; NOD mouse,suppressed insulitis
same,"expression levels of cytokines (TNF-α, IL-1β, IL-6, IL-12, IL-2, IFN-γ, IL4, IL-10)",[8],reduced the expression levels of all kinds of cytokines
